Reference: patent US5637617A, “Methods for use of GABAa receptor GABAergic compounds” (The Regents of the University of California, priority 1994, dated 1997)

Tested on: phosphoinositide/Ca2+ pathway
Test: Direct membrane current responses of oocytes to fenamates
Format: cell-based, Xenopus laevis
Settings: 10-100 μM; in some oocytes

Q: For `Cc1ccc(Cl)c(Nc2ccccc2C(=O)O)c1Cl` [Meclofenamate, Meclofenamic acid], which “direct membrane current responses” value is on record?
A: able to elicit membrane current responses

Q: `Cc1cccc(Nc2ccccc2C(=O)O)c1C` [Mefenamic acid] was tested. Which “direct membrane current responses” value did it give?
A: able to elicit membrane current responses
